According to the kinase profiling compilation of Christmann-Franck et al. (2016):
Where “and” joins values, the source holds several entries; their conditions need not be identical. Identical values can stand only once.

What was measured:
Assay in all cases: Caliper, Mobility shift assay off-chip
MARK3 (human) = MARK3 (human) (UniProt P27448)
PRKD2 (human) = PRKD2 (human) (UniProt Q9BZL6)
MAPK3 (human) = MAPK3 (human) (UniProt P27361)
[1] = test system: FLT3 (human), P36888 [D835Y]
[2] = test system: ABL1 (human), P00519 [H396P]
CSNK1D (human) = CSNK1D (human) (UniProt P48730)
PRKCE (human) = PRKCE (human) (UniProt Q02156)
PRKCE (human), sequence (Q02156 whole entry, looked up): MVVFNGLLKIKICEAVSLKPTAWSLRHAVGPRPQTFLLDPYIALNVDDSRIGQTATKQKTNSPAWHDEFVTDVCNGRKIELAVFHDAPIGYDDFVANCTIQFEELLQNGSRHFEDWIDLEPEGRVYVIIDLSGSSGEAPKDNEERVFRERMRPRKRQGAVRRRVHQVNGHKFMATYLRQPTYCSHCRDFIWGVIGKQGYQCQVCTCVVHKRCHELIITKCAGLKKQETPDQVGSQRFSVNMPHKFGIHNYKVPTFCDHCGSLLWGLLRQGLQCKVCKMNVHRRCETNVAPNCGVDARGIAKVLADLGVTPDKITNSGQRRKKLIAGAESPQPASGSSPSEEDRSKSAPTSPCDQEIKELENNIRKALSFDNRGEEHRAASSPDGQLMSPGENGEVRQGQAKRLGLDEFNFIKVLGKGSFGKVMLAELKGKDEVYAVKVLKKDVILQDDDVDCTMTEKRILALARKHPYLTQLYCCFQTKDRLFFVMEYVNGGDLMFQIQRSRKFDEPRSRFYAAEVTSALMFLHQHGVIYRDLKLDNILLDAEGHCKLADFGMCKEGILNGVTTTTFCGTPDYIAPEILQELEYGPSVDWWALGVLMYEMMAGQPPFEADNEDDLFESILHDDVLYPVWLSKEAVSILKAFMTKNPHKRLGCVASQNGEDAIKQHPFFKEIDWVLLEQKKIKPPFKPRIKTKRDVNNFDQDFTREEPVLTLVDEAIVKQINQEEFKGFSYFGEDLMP

CAMK2G (human) = CAMK2G (human) (UniProt Q13555)
AKT1 (human) = AKT1 (human) (UniProt P31749)
AKT1 (human), sequence (P31749 whole entry, looked up): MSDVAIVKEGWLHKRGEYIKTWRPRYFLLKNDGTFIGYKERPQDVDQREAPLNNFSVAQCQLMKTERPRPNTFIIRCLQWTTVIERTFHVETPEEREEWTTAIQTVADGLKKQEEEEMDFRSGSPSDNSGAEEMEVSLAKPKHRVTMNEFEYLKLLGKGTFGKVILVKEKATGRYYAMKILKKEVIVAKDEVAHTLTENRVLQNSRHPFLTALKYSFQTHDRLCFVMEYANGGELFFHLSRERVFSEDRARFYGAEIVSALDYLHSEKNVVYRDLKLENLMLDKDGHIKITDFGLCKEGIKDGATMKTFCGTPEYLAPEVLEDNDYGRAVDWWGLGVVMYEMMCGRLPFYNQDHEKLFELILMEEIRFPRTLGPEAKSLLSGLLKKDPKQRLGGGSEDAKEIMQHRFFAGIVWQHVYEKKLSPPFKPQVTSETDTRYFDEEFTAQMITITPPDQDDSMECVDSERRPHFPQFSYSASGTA

MAPKAPK3 (human) = MAPKAPK3 (human) (UniProt Q16644)
MAPK14 (human) = MAPK14 (human) (UniProt Q16539)
MAPK14 (human), sequence (Q16539 whole entry, looked up): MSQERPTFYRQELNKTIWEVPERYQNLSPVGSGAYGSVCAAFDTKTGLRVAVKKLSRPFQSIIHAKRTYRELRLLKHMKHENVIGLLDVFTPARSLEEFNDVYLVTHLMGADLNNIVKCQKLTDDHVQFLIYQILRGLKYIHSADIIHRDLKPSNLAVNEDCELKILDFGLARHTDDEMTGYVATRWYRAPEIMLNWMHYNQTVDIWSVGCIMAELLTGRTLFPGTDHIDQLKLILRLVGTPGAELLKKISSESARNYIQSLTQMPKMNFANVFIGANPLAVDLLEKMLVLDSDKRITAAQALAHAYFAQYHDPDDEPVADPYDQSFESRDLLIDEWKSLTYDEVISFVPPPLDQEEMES

MAPKAPK2 (human) = MAPKAPK2 (human) (UniProt P49137)
RAF1 (human) = RAF1 (human) (UniProt P04049)
TSSK2 (human) = TSSK2 (human) (UniProt Q96PF2); conditions: compound 1.0 µM
CSNK1A1 (human) = CSNK1A1 (human) (UniProt P48729)
GSK3B (human) = GSK3B (human) (UniProt P49841)
BMX (human) = BMX (human) (UniProt P51813)
AKT3 (human) = AKT3 (human) (UniProt Q9Y243)
SYK (human) = SYK (human) (UniProt P43405)
IKBKB (human) = IKBKB (human) (UniProt O14920)
MAPK11 (human) = MAPK11 (human) (UniProt Q15759)
MAPK11 (human), sequence (Q15759 whole entry, looked up): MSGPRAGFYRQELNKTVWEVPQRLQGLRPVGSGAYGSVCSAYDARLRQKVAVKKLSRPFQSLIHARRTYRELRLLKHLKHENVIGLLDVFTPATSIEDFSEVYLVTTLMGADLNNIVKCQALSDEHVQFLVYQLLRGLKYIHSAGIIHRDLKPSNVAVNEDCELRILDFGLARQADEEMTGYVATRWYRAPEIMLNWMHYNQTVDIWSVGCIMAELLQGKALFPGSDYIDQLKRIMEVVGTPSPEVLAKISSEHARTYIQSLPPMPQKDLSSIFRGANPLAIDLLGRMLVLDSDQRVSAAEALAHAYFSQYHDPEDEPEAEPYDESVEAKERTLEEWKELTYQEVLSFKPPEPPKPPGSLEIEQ

LYN (human) = LYN (human) (UniProt P07948)
PRKD3 (human) = PRKD3 (human) (UniProt O94806)
MARK2 (human) = MARK2 (human) (UniProt Q7KZI7)
MARK2 (human), sequence (Q7KZI7 whole entry, looked up): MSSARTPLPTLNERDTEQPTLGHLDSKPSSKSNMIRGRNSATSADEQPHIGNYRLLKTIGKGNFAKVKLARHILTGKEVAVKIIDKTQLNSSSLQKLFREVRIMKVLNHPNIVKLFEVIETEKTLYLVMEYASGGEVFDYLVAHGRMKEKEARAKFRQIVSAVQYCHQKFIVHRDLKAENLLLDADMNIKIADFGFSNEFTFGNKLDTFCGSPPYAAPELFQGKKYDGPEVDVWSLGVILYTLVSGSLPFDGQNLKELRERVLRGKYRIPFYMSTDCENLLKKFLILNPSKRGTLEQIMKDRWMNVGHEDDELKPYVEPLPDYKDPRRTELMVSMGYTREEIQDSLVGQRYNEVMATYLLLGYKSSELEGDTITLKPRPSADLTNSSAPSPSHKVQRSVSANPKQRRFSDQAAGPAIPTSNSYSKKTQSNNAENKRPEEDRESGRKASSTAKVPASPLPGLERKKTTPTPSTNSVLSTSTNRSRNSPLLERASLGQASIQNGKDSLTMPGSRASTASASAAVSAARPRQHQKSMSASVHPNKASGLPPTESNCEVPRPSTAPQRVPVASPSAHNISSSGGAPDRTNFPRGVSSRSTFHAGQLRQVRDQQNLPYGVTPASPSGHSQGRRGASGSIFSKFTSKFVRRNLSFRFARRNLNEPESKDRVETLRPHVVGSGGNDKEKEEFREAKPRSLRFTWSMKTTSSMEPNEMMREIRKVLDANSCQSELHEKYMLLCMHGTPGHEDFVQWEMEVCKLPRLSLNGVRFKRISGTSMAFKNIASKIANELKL

CAMK2D (human) = CAMK2D (human) (UniProt Q13557)
EGFR (human) = EGFR (human) (UniProt P00533); conditions: compound 0.1 µM
PRKG1 (human) = PRKG1 (human) (UniProt Q13976)
PRKG1 (human), sequence (Q13976 whole entry, looked up): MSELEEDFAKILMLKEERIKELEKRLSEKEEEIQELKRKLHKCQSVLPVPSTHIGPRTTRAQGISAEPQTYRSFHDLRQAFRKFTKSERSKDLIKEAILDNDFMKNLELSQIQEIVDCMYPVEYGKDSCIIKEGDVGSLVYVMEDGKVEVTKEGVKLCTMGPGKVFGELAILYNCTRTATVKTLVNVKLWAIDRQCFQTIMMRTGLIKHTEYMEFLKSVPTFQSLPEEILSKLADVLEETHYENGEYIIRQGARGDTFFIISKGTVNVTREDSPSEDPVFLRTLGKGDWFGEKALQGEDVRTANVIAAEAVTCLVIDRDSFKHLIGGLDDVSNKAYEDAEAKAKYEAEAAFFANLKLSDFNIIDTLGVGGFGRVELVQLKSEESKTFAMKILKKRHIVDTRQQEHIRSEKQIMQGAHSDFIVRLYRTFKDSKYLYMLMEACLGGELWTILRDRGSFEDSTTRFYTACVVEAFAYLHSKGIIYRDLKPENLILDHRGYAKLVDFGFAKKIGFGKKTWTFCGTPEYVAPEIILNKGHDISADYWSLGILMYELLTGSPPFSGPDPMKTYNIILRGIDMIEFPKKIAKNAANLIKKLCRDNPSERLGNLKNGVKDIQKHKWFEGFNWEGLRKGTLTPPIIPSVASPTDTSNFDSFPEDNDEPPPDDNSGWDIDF

FGFR3 (human) = FGFR3 (human) (UniProt P22607); conditions: compound 0.1 µM
BRSK1 (human) = BRSK1 (human) (UniProt Q8TDC3)
MAPKAPK5 (human) = MAPKAPK5 (human) (UniProt Q8IW41)
MAPKAPK5 (human), sequence (Q8IW41 whole entry, looked up): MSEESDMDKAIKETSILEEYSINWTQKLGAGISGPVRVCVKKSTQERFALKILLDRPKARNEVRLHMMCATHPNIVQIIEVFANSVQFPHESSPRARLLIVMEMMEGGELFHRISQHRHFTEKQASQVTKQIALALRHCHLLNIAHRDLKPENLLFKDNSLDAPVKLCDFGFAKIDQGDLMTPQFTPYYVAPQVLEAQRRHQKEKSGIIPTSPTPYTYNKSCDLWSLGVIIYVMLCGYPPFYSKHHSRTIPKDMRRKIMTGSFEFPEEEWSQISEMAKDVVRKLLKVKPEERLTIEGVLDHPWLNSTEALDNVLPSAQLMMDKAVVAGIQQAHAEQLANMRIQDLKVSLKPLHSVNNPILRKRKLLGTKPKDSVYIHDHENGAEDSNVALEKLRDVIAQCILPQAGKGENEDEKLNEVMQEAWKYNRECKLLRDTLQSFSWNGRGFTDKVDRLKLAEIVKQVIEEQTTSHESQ

FLT3 (human) = FLT3 (human) (UniProt P36888)
IGF1R (human) = IGF1R (human) (UniProt P08069)
BRSK2 (human) = BRSK2 (human) (UniProt Q8IWQ3)
DCLK2 (human) = DCLK2 (human) (UniProt Q8N568)

MARK3 (human), sequence (P27448 whole entry, looked up): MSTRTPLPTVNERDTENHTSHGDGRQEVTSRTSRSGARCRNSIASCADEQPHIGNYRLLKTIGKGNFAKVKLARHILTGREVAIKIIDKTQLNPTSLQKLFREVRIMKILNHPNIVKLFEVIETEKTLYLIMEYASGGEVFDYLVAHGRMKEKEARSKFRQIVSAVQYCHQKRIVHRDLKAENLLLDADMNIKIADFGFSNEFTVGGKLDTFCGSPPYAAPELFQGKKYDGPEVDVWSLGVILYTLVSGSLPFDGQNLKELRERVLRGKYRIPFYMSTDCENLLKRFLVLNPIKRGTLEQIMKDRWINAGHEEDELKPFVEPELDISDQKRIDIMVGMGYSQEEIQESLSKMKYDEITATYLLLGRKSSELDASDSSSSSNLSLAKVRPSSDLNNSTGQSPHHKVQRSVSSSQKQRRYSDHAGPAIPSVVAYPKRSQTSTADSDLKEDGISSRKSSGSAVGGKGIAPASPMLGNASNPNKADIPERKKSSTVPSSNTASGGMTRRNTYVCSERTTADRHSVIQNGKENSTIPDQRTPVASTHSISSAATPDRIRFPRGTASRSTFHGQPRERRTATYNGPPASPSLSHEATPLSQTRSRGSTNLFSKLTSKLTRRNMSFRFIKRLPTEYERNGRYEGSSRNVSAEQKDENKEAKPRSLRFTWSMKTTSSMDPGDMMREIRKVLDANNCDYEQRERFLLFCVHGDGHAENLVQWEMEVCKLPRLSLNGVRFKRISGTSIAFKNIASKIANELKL
MAPK3 (human), sequence (P27361 whole entry, looked up): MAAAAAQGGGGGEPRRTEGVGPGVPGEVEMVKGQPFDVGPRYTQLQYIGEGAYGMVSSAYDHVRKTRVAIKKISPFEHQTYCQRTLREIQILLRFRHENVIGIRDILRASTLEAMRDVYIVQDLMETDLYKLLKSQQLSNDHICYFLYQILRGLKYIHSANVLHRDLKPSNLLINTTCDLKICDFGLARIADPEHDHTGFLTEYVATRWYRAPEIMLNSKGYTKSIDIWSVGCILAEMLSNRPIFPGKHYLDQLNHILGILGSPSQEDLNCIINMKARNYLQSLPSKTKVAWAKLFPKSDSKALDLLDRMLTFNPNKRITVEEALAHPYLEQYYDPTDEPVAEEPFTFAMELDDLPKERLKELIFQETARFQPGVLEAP

## Cn1cc(-c2cnc3ccc4ccc(CS(=O)(=O)CCc5ccccn5)cc4c(=O)c3c2)cn1
MARK3 (human); compound 0.1 µM
  inhibition: -7.9%
MARK3 (human); compound 1.0 µM
  inhibition: -4.1%
PRKD2 (human); compound 0.1 µM
  inhibition: -8.3%
PRKD2 (human); compound 1.0 µM
  inhibition: -3.5%
MAPK3 (human); compound 0.1 µM
  inhibition: -10.8%
MAPK3 (human); compound 1.0 µM
  inhibition: -1.3%
[1]; compound 0.1 µM
  inhibition: 2.5%
[1]; compound 1.0 µM
  inhibition: 13.3%
[2]; compound 0.1 µM
  inhibition: 10.6%
[2]; compound 1.0 µM
  inhibition: 13.9%
CSNK1D (human); compound 0.1 µM
  inhibition: 7.8%
CSNK1D (human); compound 1.0 µM
  inhibition: 8.9%
PRKCE (human); compound 0.1 µM
  inhibition: 6.5%
PRKCE (human); compound 1.0 µM
  inhibition: 1.1%
CAMK2G (human); compound 0.1 µM
  inhibition: -0.2%
CAMK2G (human); compound 1.0 µM
  inhibition: -1.5%
AKT1 (human); compound 0.1 µM
  inhibition: -1.3%
AKT1 (human); compound 1.0 µM
  inhibition: 0.7%
MAPKAPK3 (human); compound 0.1 µM
  inhibition: 1.8%
MAPKAPK3 (human); compound 1.0 µM
  inhibition: -5.4%
MAPK14 (human); compound 0.1 µM
  inhibition: 5.3%
MAPK14 (human); compound 1.0 µM
  inhibition: -2.7%
MAPKAPK2 (human); compound 0.1 µM
  inhibition: -14.7%
MAPKAPK2 (human); compound 1.0 µM
  inhibition: -4.4%
RAF1 (human); compound 0.1 µM
  inhibition: 5.1%
RAF1 (human); compound 1.0 µM
  inhibition: 1.4%
TSSK2 (human)
  inhibition: -7.1%
CSNK1A1 (human); compound 0.1 µM
  inhibition: -8.6%
CSNK1A1 (human); compound 1.0 µM
  inhibition: -0.9%
GSK3B (human); compound 0.1 µM
  inhibition: -3.5%
GSK3B (human); compound 1.0 µM
  inhibition: 3%
BMX (human); compound 0.1 µM
  inhibition: -7.2%
BMX (human); compound 1.0 µM
  inhibition: 8.8%
AKT3 (human); compound 0.1 µM
  inhibition: 6.4%
AKT3 (human); compound 1.0 µM
  inhibition: -5.8%
SYK (human); compound 0.1 µM
  inhibition: 1.2%
SYK (human); compound 1.0 µM
  inhibition: -1.7%
IKBKB (human); compound 0.1 µM
  inhibition: 1.4%
IKBKB (human); compound 1.0 µM
  inhibition: -1.2%
MAPK11 (human); compound 0.1 µM
  inhibition: -11%
MAPK11 (human); compound 1.0 µM
  inhibition: -1.8%
LYN (human); compound 0.1 µM
  inhibition: -7.4%
LYN (human); compound 1.0 µM
  inhibition: 5.9%
PRKD3 (human); compound 0.1 µM
  inhibition: -6.1%
PRKD3 (human); compound 1.0 µM
  inhibition: 3.6%
MARK2 (human); compound 0.1 µM
  inhibition: -1.3%
MARK2 (human); compound 1.0 µM
  inhibition: 6.5%
CAMK2D (human); compound 0.1 µM
  inhibition: -16.1%
CAMK2D (human); compound 1.0 µM
  inhibition: -3.6%
EGFR (human)
  inhibition: -5.8%
PRKG1 (human); compound 0.1 µM
  inhibition: 4.3% and 6.4%
PRKG1 (human); compound 1.0 µM
  inhibition: -3.3% and -9.8%
FGFR3 (human)
  inhibition: 34.5%
BRSK1 (human); compound 0.1 µM
  inhibition: -11.7%
BRSK1 (human); compound 1.0 µM
  inhibition: 0.3%
MAPKAPK5 (human); compound 0.1 µM
  inhibition: -20.9%
MAPKAPK5 (human); compound 1.0 µM
  inhibition: 4.4%
FLT3 (human); compound 0.1 µM
  inhibition: 1.3%
FLT3 (human); compound 1.0 µM
  inhibition: 24.2%
IGF1R (human); compound 0.1 µM
  inhibition: -23.8%
IGF1R (human); compound 1.0 µM
  inhibition: -10%
BRSK2 (human); compound 0.1 µM
  inhibition: 1.5%
BRSK2 (human); compound 1.0 µM
  inhibition: 2.5%
DCLK2 (human); compound 0.1 µM
  inhibition: -6.4%
DCLK2 (human); compound 1.0 µM
  inhibition: -2.5%
